The source made the active and inactive calls. The rule behind the calls is not given here.
Tests used:
Type in all cases: functional, organism-based
Conditions in all cases: Trachea
[1] = system: Pseudomonas aeruginosa; test: Antimicrobial activity against Pseudomonas aeruginosa 19F2 tracheal isolates from mechanically ventilated chronic respiratory insufficiency patient
[2] = system: Pseudomonas aeruginosa; test: Antimicrobial activity against Pseudomonas aeruginosa 13D11 tracheal isolates from mechanically ventilated chronic respiratory insufficiency patient
[3] = system: Pseudomonas aeruginosa; test: Antimicrobial activity against Pseudomonas aeruginosa 19C12 tracheal isolates from mechanically ventilated chronic respiratory insufficiency patient
[4] = system: Pseudomonas aeruginosa; test: Antimicrobial activity against Pseudomonas aeruginosa 19E1 tracheal isolates from mechanically ventilated chronic respiratory insufficiency patient
[5] = system: Pseudomonas aeruginosa; test: Antimicrobial activity against Pseudomonas aeruginosa 15G10 tracheal isolates from mechanically ventilated chronic respiratory insufficiency patient
[6] = system: Pseudomonas aeruginosa; test: Antimicrobial activity against Pseudomonas aeruginosa 22D9 tracheal isolates from mechanically ventilated chronic respiratory insufficiency patient
[7] = system: Pseudomonas aeruginosa; test: Antimicrobial activity against Pseudomonas aeruginosa 19B1 tracheal isolates from mechanically ventilated chronic respiratory insufficiency patient
[8] = system: Pseudomonas aeruginosa; test: Antimicrobial activity against Pseudomonas aeruginosa 24E6 tracheal isolates from mechanically ventilated chronic respiratory insufficiency patient
[9] = system: Pseudomonas aeruginosa; test: Antimicrobial activity against Pseudomonas aeruginosa 3E2 tracheal isolates from mechanically ventilated chronic respiratory insufficiency patient
[10] = system: Pseudomonas aeruginosa; test: Antimicrobial activity against Pseudomonas aeruginosa 13D3 tracheal isolates from mechanically ventilated chronic respiratory insufficiency patient
[11] = system: Pseudomonas aeruginosa; test: Antimicrobial activity against Pseudomonas aeruginosa 65.68-4 tracheal isolates from mechanically ventilated tuberculosis patient
[12] = system: Pseudomonas aeruginosa; test: Antimicrobial activity against Pseudomonas aeruginosa 65.38-4 tracheal isolates from mechanically ventilated tuberculosis patient
[13] = system: Pseudomonas aeruginosa; test: Antimicrobial activity against Pseudomonas aeruginosa 19C7 tracheal isolates from mechanically ventilated chronic respiratory insufficiency patient
[14] = system: Pseudomonas aeruginosa; test: Antimicrobial activity against Pseudomonas aeruginosa 65.18-2 tracheal isolates from mechanically ventilated tuberculosis patient
[15] = system: Pseudomonas aeruginosa; test: Antimicrobial activity against Pseudomonas aeruginosa 24E1 tracheal isolates from mechanically ventilated chronic respiratory insufficiency patient
[16] = system: Pseudomonas aeruginosa; test: Antimicrobial activity against Pseudomonas aeruginosa 29H1 tracheal isolates from mechanically ventilated chronic respiratory insufficiency patient
[17] = system: Pseudomonas aeruginosa; test: Antimicrobial activity against Pseudomonas aeruginosa 65.18-3 tracheal isolates from mechanically ventilated tuberculosis patient
[18] = system: Pseudomonas aeruginosa; test: Antimicrobial activity against Pseudomonas aeruginosa 8C4 tracheal isolates from mechanically ventilated chronic respiratory insufficiency patient
[19] = system: Pseudomonas aeruginosa; test: Antimicrobial activity against Pseudomonas aeruginosa 2A1 tracheal isolates from mechanically ventilated tuberculosis patient
[20] = system: Pseudomonas aeruginosa; test: Antimicrobial activity against Pseudomonas aeruginosa 9A7 tracheal isolates from mechanically ventilated chronic respiratory insufficiency patient
[21] = system: Pseudomonas aeruginosa; test: Antimicrobial activity against Pseudomonas aeruginosa 22D6 tracheal isolates from mechanically ventilated chronic respiratory insufficiency patient
[22] = system: Pseudomonas aeruginosa; test: Antimicrobial activity against Pseudomonas aeruginosa 16D2 tracheal isolates from mechanically ventilated chronic respiratory insufficiency patient
[23] = system: Pseudomonas aeruginosa; test: Antimicrobial activity against Pseudomonas aeruginosa 1C9 tracheal isolates from mechanically ventilated tuberculosis patient
[24] = system: Pseudomonas aeruginosa; test: Antimicrobial activity against Pseudomonas aeruginosa 22E3 tracheal isolates from mechanically ventilated chronic respiratory insufficiency patient
[25] = system: Pseudomonas aeruginosa; test: Antimicrobial activity against Pseudomonas aeruginosa IC7 tracheal isolates from mechanically ventilated tuberculosis patient
[26] = system: Pseudomonas aeruginosa; test: Antimicrobial activity against Pseudomonas aeruginosa 24E2 tracheal isolates from mechanically ventilated chronic respiratory insufficiency patient
[27] = system: Pseudomonas aeruginosa; test: Antimicrobial activity against Pseudomonas aeruginosa 2B5 tracheal isolates from mechanically ventilated tuberculosis patient
[28] = system: Pseudomonas aeruginosa; test: Antimicrobial activity against Pseudomonas aeruginosa 2A3 tracheal isolates from mechanically ventilated tuberculosis patient
[29] = system: Pseudomonas aeruginosa; test: Antimicrobial activity against Pseudomonas aeruginosa 13D6 tracheal isolates from mechanically ventilated chronic respiratory insufficiency patient
[30] = system: Pseudomonas aeruginosa; test: Antimicrobial activity against Pseudomonas aeruginosa 65.36-4 tracheal isolates from mechanically ventilated tuberculosis patient
[31] = system: Pseudomonas aeruginosa; test: Antimicrobial activity against Pseudomonas aeruginosa 23C5 tracheal isolates from mechanically ventilated chronic respiratory insufficiency patient
[32] = system: Pseudomonas aeruginosa; test: Antimicrobial activity against Pseudomonas aeruginosa 19C5 tracheal isolates from mechanically ventilated chronic respiratory insufficiency patient
[33] = system: Pseudomonas aeruginosa; test: Antimicrobial activity against Pseudomonas aeruginosa 19D10 tracheal isolates from mechanically ventilated chronic respiratory insufficiency patient
[34] = system: Pseudomonas aeruginosa; test: Antimicrobial activity against Pseudomonas aeruginosa 19F1 tracheal isolates from mechanically ventilated chronic respiratory insufficiency patient
[35] = system: Pseudomonas aeruginosa; test: Antimicrobial activity against Pseudomonas aeruginosa 22D2 tracheal isolates from mechanically ventilated chronic respiratory insufficiency patient
[36] = system: Pseudomonas aeruginosa; test: Antimicrobial activity against Pseudomonas aeruginosa 5F2 tracheal isolates from mechanically ventilated chronic respiratory insufficiency patient
[37] = system: Pseudomonas aeruginosa; test: Antimicrobial activity against Pseudomonas aeruginosa 24D1 tracheal isolates from mechanically ventilated chronic respiratory insufficiency patient
[38] = system: Pseudomonas aeruginosa; test: Antimicrobial activity against Pseudomonas aeruginosa 19E12 tracheal isolates from mechanically ventilated chronic respiratory insufficiency patient
[39] = system: Pseudomonas aeruginosa; test: Antimicrobial activity against Pseudomonas aeruginosa 19B3 tracheal isolates from mechanically ventilated chronic respiratory insufficiency patient
[40] = system: Pseudomonas aeruginosa; test: Antimicrobial activity against Pseudomonas aeruginosa IA5 tracheal isolates from mechanically ventilated tuberculosis patient
[41] = system: Pseudomonas aeruginosa; test: Antimicrobial activity against Pseudomonas aeruginosa 65.18-1 tracheal isolates from mechanically ventilated tuberculosis patient
[42] = system: Pseudomonas aeruginosa; test: Antimicrobial activity against Pseudomonas aeruginosa 8A2 tracheal isolates from mechanically ventilated chronic respiratory insufficiency patient
[43] = system: Pseudomonas aeruginosa; test: Antimicrobial activity against Pseudomonas aeruginosa 65.36-2 tracheal isolates from mechanically ventilated tuberculosis patient
[44] = system: Pseudomonas aeruginosa; test: Antimicrobial activity against Pseudomonas aeruginosa 65.36-3 tracheal isolates from mechanically ventilated tuberculosis patient
[45] = system: Pseudomonas aeruginosa; test: Antimicrobial activity against Pseudomonas aeruginosa 19C2 tracheal isolates from mechanically ventilated chronic respiratory insufficiency patient
[46] = system: Pseudomonas aeruginosa; test: Antimicrobial activity against Pseudomonas aeruginosa 65.38-2 tracheal isolates from mechanically ventilated tuberculosis patient
[47] = system: Pseudomonas aeruginosa; test: Antimicrobial activity against Pseudomonas aeruginosa 24F4 tracheal isolates from mechanically ventilated chronic respiratory insufficiency patient
[48] = system: Pseudomonas aeruginosa; test: Antimicrobial activity against Pseudomonas aeruginosa 65.33-3 tracheal isolates from mechanically ventilated tuberculosis patient
[49] = system: Pseudomonas aeruginosa; test: Antimicrobial activity against Pseudomonas aeruginosa 24D5 tracheal isolates from mechanically ventilated chronic respiratory insufficiency patient

In the case of `CO/N=C(\C(=O)N[C@@H]1C(=O)N2C(C(=O)[O-])=C(C[N+]3(C)CCCC3)CS[C@H]12)c1csc(N)n1`, the Activity [1] was “Active”, the Activity [2] was “Active” and the Activity [3] was “Active”. For the same compound, the Activity [4] was “Active”, the Activity [5] was “Active” and the Activity [6] was “Active”. For the same compound, the Activity [7] was “Active”, the Activity [8] was “Active” and the Activity [9] was “Active”. For the same compound, the Activity [10] was “Active”, the Activity [11] was “Active” and the Activity [12] was “Active”. For the same compound, the Activity [13] was “Active”, the Activity [14] was “Active” and the Activity [15] was “Active”. The Activity [16] was “inactive”, the Activity [17] was “Active” and the Activity [18] was “Active”. The Activity [19] was “Active”, the Activity [20] was “Active” and the Activity [21] was “Active”. The Activity [22] was “Active”, the Activity [23] was “Active” and the Activity [24] was “Active”. For the same compound, the Activity [25] was “Active”, the Activity [26] was “Active” and the Activity [27] was “Active”. For the same compound, the Activity [28] was “Active”, the Activity [29] was “Active” and the Activity [30] was “inactive”. For the same compound, the Activity [31] was “Active”, the Activity [32] was “Active” and the Activity [33] was “Active”. The Antimicrobial activity [34] was “Active”, the Activity [35] was “Active” and the Activity [36] was “Active”. The Activity [37] was “Active”, the Activity [38] was “Active” and the Activity [39] was “Active”. For the same compound, the Activity [40] was “Active”, the Activity [41] was “Active” and the Activity [42] was “Active”. For the same compound, the Activity [43] was “Active”.

In the case of `C[C@@H](O)[C@H]1C(=O)N2C(C(=O)O)=C(SCCNC=N)C[C@H]12`, the Activity [44] was “inactive”, the Activity [1] was “Active” and the Activity [2] was “Active”. For the same compound, the Activity [3] was “Active”, the Activity [45] was “Active” and the Activity [4] was “Active”. The Activity [5] was “Active”, the Activity [6] was “Active” and the Activity [7] was “Active”. The Activity [8] was “Active”, the Activity [9] was “Active” and the Activity [10] was “Active”. The Activity [11] was “inactive”, the Activity [13] was “Active” and the Activity [14] was “Active”. For the same compound, the Activity [15] was “Active”, the Activity [17] was “inactive” and the Activity [18] was “Active”. For the same compound, the Activity [46] was “inactive”, the Activity [19] was “inactive” and the Activity [20] was “Active”. The Activity [21] was “Active”, the Activity [22] was “Active” and the Activity [24] was “Active”. For the same compound, the Activity [47] was “Active”, the Activity [25] was “inactive” and the Activity [26] was “Active”. For the same compound, the Activity [27] was “inactive”, the Activity [28] was “inactive” and the Activity [29] was “Active”. The Activity [30] was “inactive”, the Activity [31] was “Active” and the Activity [48] was “inactive”. The Activity [33] was “Active”, the Antimicrobial activity [34] was “Active” and the Activity [35] was “Active”. For the same compound, the Activity [36] was “Active”, the Activity [38] was “Active” and the Activity [39] was “Active”. For the same compound, the Activity [41] was “Active”, the Activity [49] was “Active” and the Activity [42] was “Active”. For the same compound, the Activity [43] was “inactive”.

In the case of `O=C(O)c1cn(C2CC2)c2cc(N3CCNCC3)c(F)cc2c1=O`, the Activity [44] was “Active”, the Activity [2] was “Active” and the Activity [6] was “Active”. For the same compound, the Activity [9] was “Active”, the Activity [11] was “Active” and the Activity [12] was “Active”. The Activity [13] was “Active”, the Activity [14] was “Active” and the Activity [16] was “inactive”. The Activity [17] was “Active”, the Activity [18] was “Active” and the Activity [46] was “Active”. For the same compound, the Activity [19] was “Active”, the Activity [20] was “Active” and the Activity [21] was “Active”. The Activity [23] was “Active”, the Activity [24] was “Active” and the Activity [47] was “Active”. For the same compound, the Activity [25] was “Active”, the Activity [27] was “Active” and the Activity [28] was “Active”. The Activity [30] was “Active”, the Activity [32] was “Active” and the Activity [48] was “Active”. For the same compound, the Activity [35] was “Active”, the Activity [36] was “Active” and the Activity [37] was “Active”. The Activity [39] was “Active”, the Activity [40] was “Active” and the Activity [41] was “Active”. The Activity [42] was “Active” and the Activity [43] was “Active”.

With `CCn1cc(C(=O)O)c(=O)c2cc(F)c(N3CCNCC3)cc21` the Activity [44] was “Active”, the Activity [2] was “Active” and the Activity [6] was “Active”. The Activity [9] was “Active”, the Activity [11] was “Active” and the Activity [12] was “Active”. The Activity [13] was “Active”, the Activity [14] was “Active” and the Activity [16] was “inactive”. For the same compound, the Activity [17] was “Active”, the Activity [18] was “Active” and the Activity [46] was “Active”. The Activity [19] was “Active”, the Activity [20] was “Active” and the Activity [21] was “Active”. The Activity [23] was “Active”, the Activity [24] was “Active” and the Activity [47] was “Active”. For the same compound, the Activity [25] was “Active”, the Activity [27] was “Active” and the Activity [28] was “Active”. For the same compound, the Activity [30] was “Active”, the Activity [32] was “Active” and the Activity [48] was “Active”. For the same compound, the Activity [35] was “Active”, the Activity [36] was “Active” and the Activity [37] was “Active”. The Activity [39] was “Active”, the Activity [40] was “Active” and the Activity [41] was “Active”. The Activity [49] was “inactive”, the Activity [42] was “Active” and the Activity [43] was “Active”.

Source: ChEMBL document CHEMBL1147101, “Development and persistence of antimicrobial resistance in Pseudomonas aeruginosa: a longitudinal observation in mechanically ventilated patients” (Antimicrob Agents Chemother, 2007)
